Assay results from patent publication US20030044399A1, “Method of treatment” (SmithKline Beecham Corporation, priority 1998, published 2003).

How the values were obtained:
[1] = target: Rhodazain (Trypanosoma brucei rhodesiense, UniProt Q95PM0); test: Cysteine protease inhibition, progress curve method, rhodazain; type: biochemical, Trypanosoma brucei rhodesiensi; conditions: Rhodazain Ki (nM), 10 uM Cbz-Leu-Arg-AMC, 100 mM Na acetate pH 5.5, 5 mM cysteine
[2] = target: T1, Leishmania B (UniProt P90627); test: Cysteine protease inhibition, progress curve method, leishmania B; type: biochemical, Leishmania spp; conditions: read-out: Leishmania B Ki nM; 10 uM Cbz-Phe-Arg-AMC, 100 mM Na acetate pH 5.5, 5 mM cysteine
T1 sequence (P90627 1-340): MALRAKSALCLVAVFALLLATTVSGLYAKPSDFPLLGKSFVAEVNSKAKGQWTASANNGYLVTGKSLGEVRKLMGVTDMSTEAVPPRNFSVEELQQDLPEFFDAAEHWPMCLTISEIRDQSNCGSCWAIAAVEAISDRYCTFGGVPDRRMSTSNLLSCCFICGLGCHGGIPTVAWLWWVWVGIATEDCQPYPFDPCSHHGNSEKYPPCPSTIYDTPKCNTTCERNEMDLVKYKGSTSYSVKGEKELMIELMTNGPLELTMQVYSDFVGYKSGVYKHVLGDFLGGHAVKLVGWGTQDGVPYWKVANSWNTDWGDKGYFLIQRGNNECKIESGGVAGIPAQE
Procedure: (§1) Standard assay conditions for the determination of kinetic constants used 10 uM fluorogenic peptide substrate, Cbz-Phe-Arg-AMC for the cysteine proteases from Leishmania spp and Schistosoma Mansoni, Cbz-Leu-Arg-AMC for the cysteine proteases from Plasmodium falciparum and Trypanosoma brucei rhodesiensi, and Ac-Lys-Glu-Lys-Leu-Arg-AMC (4 uM final substrate concentration) for the cysteine protease from Trypoanosoma cruzi, and were determined in 100 mM Na acetate at pH 5.5 containing 5 mM cysteine. Stock substrate solutions were prepared at concentrations of […] in DMSO with 10 uM (4 uM for Ac-Lys-Glu-Lys-Leu-Arg-AMC) final substrate concentration in the assays. The final DMSO concentration was 2% and the final volume was 100 uL. All assays were conducted at ambient temperature. Product progress curves were generated over 20 to 30 minutes following formation of AMC product.
(§2) Potential inhibitors were evaluated using the progress curve method. Assays were carried out in the presence of variable concentrations of test compound. Reactions were initiated by addition of enzyme to buffered solutions of inhibitor and substrate. Data analysis was conducted according to one of two procedures depending on the appearance of the progress curves in the presence of inhibitors. For those compounds whose progress curves were linear, apparent inhibition constants (Ki,app) were calculated according to equation 1 (Brandt et al., Biochemitsry, 1989, 28, 140):
(§3) v=VmA/[Ka(1+I/Ki,app)+A] (1)
(§4) Where v is the velocity of the reaction with maximal velocity Vm, A is the concentration of substrate with Michaelis constant of Ka, and I is the concentration of inhibitor.
(§5) [AMC]=vsst+(v0−vss)[1−exp (−kobst)]/kobs (2)
(§6) Where [AMC] is the concentration of product formed over time t, v0 is the initial reaction velocity and vss is the final steady state rate. Values for kobs were then analyzed as a linear function of inhibitor concentration to generate an apparent second order rate constant (kobs/inhibitor concentration or kobs/[I]) describing the time-dependent inhibition. A complete discussion of this kinetic treatment has been fully described (Morrison et al., Adv. Enzymol. Relat. Areas Mol. Biol., 1988, 61, 201).
(§7) Exemplary inhibition data for the compounds used in the present method collected in accordance with the above-described procedure are listed in Table I.

[3] = target: Schisto B 1 (Schistosoma mansoni, UniProt P25792); test: Cysteine protease inhibition, progress curve method, schistosoma B 1; type: biochemical; conditions: 10 uM Cbz-Phe-Arg-AMC, 100 mM Na acetate pH 5.5, 5 mM cysteine; read-out: Schisto B 1 Ki
Procedure: as §1, §2, §3, §4, §5, §6, §7

[4] = target: Schisto B 2 (Schistosoma mansoni, UniProt Q95PM1); test: Cysteine protease inhibition, progress curve method, schistosoma B 2; type: biochemical; conditions: 10 uM Cbz-Phe-Arg-AMC, 100 mM Na acetate pH 5.5, 5 mM cysteine
Procedure: as §1, §2, §3, §4, §5, §6, §7

[5] = target: Cruzain (Trypanosoma cruzi, UniProt P25779); test: Cysteine protease inhibition, progress curve method, cruzain; type: biochemical; conditions: 4 uM Ac-Lys-Glu-Lys-Leu-Arg-AMC, 100 mM Na acetate pH 5.5, 5 mM cysteine; read-out: Cruzain Ki
How it was run: (§8)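 Buffer was 100 mM sodium acetate pH 5.5 with 5 mM cysteine and 2% DMSO, at ambient temperature; reactions started with enzyme, and AMC formation was followed for 20–30 min. Substrates: Leishmania and Schistosoma, 10 uM Cbz-Phe-Arg-AMC; falcipain, 10 uM Cbz-Leu-Arg-AMC; cruzain, 4 uM Ac-Lys-Glu-Lys-Leu-Arg-AMC. Linear curves gave Ki,app; curved ones gave kobs/[I].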

[6] = target: Falcipain 2 (Plasmodium falciparum, UniProt Q8I6U4); test: Cysteine protease inhibition, progress curve method, falcipain; type: biochemical; conditions: 10 uM Cbz-Leu-Arg-AMC, 100 mM Na acetate pH 5.5, 5 mM cysteine
How it was run: as §8

[7] = target: Leishmania L (Leishmania major, UniProt P90628); test: Cysteine protease inhibition, progress curve method, leishmania L; type: biochemical, Leishmania spp; conditions: 10 uM Cbz-Phe-Arg-AMC, 100 mM Na acetate pH 5.5, 5 mM cysteine
Procedure: as §1, with “Product progress curves were generated over 20 to 30 minutes following formation of AMC product.” left out
Potential inhibitors were evaluated using the progress curve method. […] For those compounds whose progress curves were linear, apparent inhibition constants (Ki,app) were calculated according to equation 1 (Brandt et al., Biochemitsry, 1989, 28, 140): […]
as §6, with “A complete discussion of this kinetic treatment has been fully described (Morrison et al., Adv. Enzymol. Relat. Areas Mol. Biol., 1988, 61, 201).” left out

Sequence of Schisto B 2 (Q95PM1 entry or part of it): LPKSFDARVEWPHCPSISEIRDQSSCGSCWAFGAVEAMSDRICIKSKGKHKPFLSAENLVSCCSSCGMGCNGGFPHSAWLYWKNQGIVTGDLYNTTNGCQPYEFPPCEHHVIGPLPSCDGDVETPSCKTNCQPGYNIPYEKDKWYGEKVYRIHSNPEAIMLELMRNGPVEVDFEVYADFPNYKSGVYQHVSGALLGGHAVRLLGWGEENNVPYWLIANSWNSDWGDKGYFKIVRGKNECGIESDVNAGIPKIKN
Sequence of Cruzain (P25779 123-337): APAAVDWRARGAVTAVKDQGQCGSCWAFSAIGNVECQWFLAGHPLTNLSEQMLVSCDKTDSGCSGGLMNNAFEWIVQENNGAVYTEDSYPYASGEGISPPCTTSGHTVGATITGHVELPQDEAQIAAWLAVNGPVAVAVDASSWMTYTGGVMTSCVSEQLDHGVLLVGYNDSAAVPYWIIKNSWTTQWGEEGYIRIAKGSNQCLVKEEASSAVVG
Sequence of Rhodazain (Q95PM0 entry or part of it): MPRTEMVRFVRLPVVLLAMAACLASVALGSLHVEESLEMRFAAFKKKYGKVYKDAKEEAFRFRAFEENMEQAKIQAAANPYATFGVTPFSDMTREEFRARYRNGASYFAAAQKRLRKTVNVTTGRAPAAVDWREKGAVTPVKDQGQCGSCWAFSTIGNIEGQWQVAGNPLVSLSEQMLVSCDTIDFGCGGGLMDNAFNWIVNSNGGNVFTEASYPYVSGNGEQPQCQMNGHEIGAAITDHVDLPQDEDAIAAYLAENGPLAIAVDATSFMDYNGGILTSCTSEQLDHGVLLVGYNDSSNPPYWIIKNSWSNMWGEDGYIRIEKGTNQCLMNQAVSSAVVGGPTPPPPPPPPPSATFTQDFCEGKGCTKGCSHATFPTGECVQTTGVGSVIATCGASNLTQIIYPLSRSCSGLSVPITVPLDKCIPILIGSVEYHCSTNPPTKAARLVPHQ
Sequence of Schisto B 1 (P25792 89-340): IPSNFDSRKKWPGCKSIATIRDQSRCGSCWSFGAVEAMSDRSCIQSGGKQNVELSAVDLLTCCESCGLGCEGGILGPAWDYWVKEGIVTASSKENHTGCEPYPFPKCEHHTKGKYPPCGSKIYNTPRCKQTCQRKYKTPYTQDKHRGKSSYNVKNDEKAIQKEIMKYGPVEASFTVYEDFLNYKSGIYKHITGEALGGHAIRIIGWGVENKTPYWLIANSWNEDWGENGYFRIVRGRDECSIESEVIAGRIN
Sequence of Falcipain 2 (Q8I6U4 244-484): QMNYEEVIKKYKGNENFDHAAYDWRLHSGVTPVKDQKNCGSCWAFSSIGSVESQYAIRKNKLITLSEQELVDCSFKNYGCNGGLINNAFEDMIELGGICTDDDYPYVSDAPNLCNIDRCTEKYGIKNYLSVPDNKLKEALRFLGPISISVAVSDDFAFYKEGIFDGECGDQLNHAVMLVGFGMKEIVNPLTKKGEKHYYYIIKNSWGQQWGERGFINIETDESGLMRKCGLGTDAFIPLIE
Sequence of Leishmania L (P90628 126-443): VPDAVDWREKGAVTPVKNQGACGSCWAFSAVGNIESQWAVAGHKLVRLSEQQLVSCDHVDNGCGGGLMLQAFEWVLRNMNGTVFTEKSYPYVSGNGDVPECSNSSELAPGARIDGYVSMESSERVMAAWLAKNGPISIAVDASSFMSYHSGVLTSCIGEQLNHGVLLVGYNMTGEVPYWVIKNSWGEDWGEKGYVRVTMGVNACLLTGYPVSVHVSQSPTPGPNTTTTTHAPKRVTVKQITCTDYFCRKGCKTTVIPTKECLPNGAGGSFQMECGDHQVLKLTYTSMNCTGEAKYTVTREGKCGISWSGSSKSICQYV

CC(C)CC(NC(=O)c1cc2ccccc2o1)C(=O)NC1CC[C@@H](C)N(S(=O)(=O)c2ccccn2)CC1=O (single isomer, unassigned) [Example 182]
Ki [1]: 1.1 nM
Ki [2]: 4.3 nM
Ki [3]: 61 nM
Ki [4]: 45 nM

O=C(N[C@@H](Cc1ccc2ccccc2c1)C(=O)NC1CCCN(S(=O)(=O)c2ccccn2)CC1=O)c1cccc2ccccc12 (single isomer, unassigned) [Example 188]
Ki [1]: 4 nM
Ki [2]: 2.8 nM
Ki [3]: 24 nM
Ki [4]: 22 nM

COc1ccc2oc(C(=O)N[C@@H](CC(C)C)C(=O)N[C@H]3CCCN(S(=O)(=O)c4cccc(Cl)c4)CC3=O)cc2c1 [Example 89, 5-Methoxy-benzofuran-2-carboxylic acid-{(S)-1-[1-(3-chloro-benzenesulfonyl)-3-oxo-azepan-4-ylcarbamoyl]-3-methyl-butyl}-amide]
Ki [5]: 11 nM
Ki [2]: 24 nM
Ki [3]: 34 nM
Ki [4]: 130 nM

Cc1c(C(=O)N[C@@H](CC(C)C)C(=O)N[C@H]2CCCN(S(=O)(=O)c3cccc(Cl)c3)CC2=O)oc2ccccc12 [Example 90, 3-Methyl-benzofuran-2-carboxylic acid-{(S)-1-[1-(3-chloro-benzenesulfonyl)-3-oxo-azepan-4-ylcarbamoyl]-3-methyl-butyl}-amide]
Ki [2]: 3.3 nM
Ki [3]: 48 nM
Ki [4]: 71 nM

CC(C)C[C@H](NC(=O)c1cc2ccccc2s1)C(=O)N[C@@H]1CCCN(S(=O)(=O)c2ccc(F)cc2)CC1=O [Example 108, Benzo[b]thiophene-2-carboxylic acid-{(S)-1-[1-(4-fluoro-benzenesulfonyl)-3-oxo-azepan-4-ylcarbamoyl]-3-methyl-butyl}-amide]
Ki [5]: 20 nM
Ki [2]: 9.4 nM
Ki [3]: 34 nM
Ki [4]: 110 nM

CC(C)C[C@H](NC(=O)c1cc2ccccc2o1)C(=O)N[C@H]1CCCN(S(=O)(=O)c2ccc(Cl)cc2)CC1=O [Example 131, Benzofuran-2-carboxylic acid {(S)-1-[1-(4-chloro-benzenesulfonyl)-3-oxo-azepan-4-ylcarbamoyl]-3-methyl-butyl}-amide]
Ki [2]: 11 nM
Ki [3]: 75 nM
Ki [4]: 300 nM

COc1ccc2oc(C(=O)N[C@@H](CC(C)C)C(=O)N[C@H]3CCCN(S(=O)(=O)c4ccc(Cl)cc4)CC3=O)cc2c1 [Example 132, 5-Methoxy-benzofuran-2-carboxylic acid {(S)-1-[1-(4-chloro-benzenesulfonyl)-3-oxo-azepan-4-ylcarbamoyl]-3-methyl-butyl}-amide]
Ki [2]: 8.1 nM
Ki [3]: 150 nM
Ki [4]: 880 nM

CC(C)C[C@H](NC(=O)c1cc2ccccc2s1)C(=O)N[C@H]1CCCN(S(=O)(=O)c2ccc(Cl)cc2)CC1=O [Example 135, Benzo[b]thiophene-2-carboxylic acid-{(S)-1-[1-(4-chloro-benzenesulfonyl)-3-oxo-azepan-4-ylcarbamoyl]-3-methyl-butyl}-amide]
Ki [2]: 8 nM
Ki [3]: 75 nM
Ki [4]: 270 nM

O=C(N[C@@H](Cc1ccc2ccccc2c1)C(=O)NC1CCCN(S(=O)(=O)c2ccccn2)CC1=O)c1cccc2cccnc12 (stereo partly drawn) [Example 174, Quinoline-8-carboxylic acid {(S)-2-naphthalen-2-yl-1-[3-oxo-1-(pyridine-2-sulfonyl)-azepan-4-ylcarbamoyl)-ethyl]-amide]
Ki [1]: 4.7 nM
Ki [2]: 1.7 nM
Ki [3]: 27 nM
Ki [4]: 8.3 nM

O=C(N[C@@H](Cc1ccc2ccccc2c1)C(=O)NC1CCCN(S(=O)(=O)c2ccccn2)CC1=O)c1cccc2ccccc12 (stereo partly drawn) [Example 175, Naphthalene-1-carboxylic acid {(S)-2-naphthalen-2-yl-1-[3-oxo-1-(pyridine-2-sulfonyl)-azepan-4-ylcarbamoyl)-ethyl]-amide]
Ki [1]: 5.6 nM
Ki [2]: 1.7 nM
Ki [3]: 37 nM
Ki [4]: 21 nM

CC(C)C[C@H](NC(=O)c1cc2sccc2s1)C(=O)N[C@H]1C[C@H](C)CN(S(=O)(=O)c2ccccn2)CC1=O [Example 200, Thieno[3,2-]thiophene-2-carboxylic acid {(S)-3-methyl-1-[6-methyl-3-oxo-1-(pyridine-2-sulfonyl)-azepan-4-ylcarbamoyl]-butyl}-amide]
Ki [6]: 4.1 nM
Ki [5]: 2.7 nM
Ki [1]: 2.3 nM
Ki [2]: 4.7 nM
Ki [3]: 63 nM
Ki [4]: 65 nM

Naphthlene-2-carboxylic acid ((S)-3-methyl-1-{3-oxo-1-[2-(3-pyridin-2-yl-phenyl)ethyl]-azepan-4-ylcarbamoyl}-butyl)amide [Example 10]
Ki [7]: 82 nM
